Test system: Chlorella sp.
Assay: Algal efficacy testing of dry paint film coupons (modified ASTM 5589, 6-well plates)
Type: cell-based, Chlorella sp. ATCC 7516
Settings: for Total conc, ppm (concentration giving pass level ≥ 75% inhibition): total active ingredient in acrylic/silicone paint, dry film coupon, used as minimum inhibitory concentration for SI
Procedure: These paints were then diluted with a biocide free acrylic/silicone based paint and mixed to prepare targeted concentrations of biocide combinations for the testing. The total biocides concentrations obtained were 125, 250, 500, 1000, 2000 and 5000 ppm. After biocides addition or dilution, the paints were mixed 90 seconds with the horse power shaker (AXEL 75M3372/Agitateur SO-10MI) until uniformity was achieved. […] After one day, the paints were applied to Schleicher & Schuell filter paper at 280 μm wet film thickness and dried for 3 days at room temperature avoiding direct exposure to sunlight. Square discs (1.8 cm×1.8 cm) were cut out from each panel and were used as the substrate for algal efficacy tests. This sample size allowed for an agar border when the sample disc was placed into the well of the test plate.
Algal efficacy was tested according to modified ASTM 5589 which is a standard accelerated test method for determining resistance of various coatings (including paints) to algal defacement. To accommodate for high-throughput screening, this method was scaled down from petri plates to 6-well plates. Bold Modified Basal Freshwater Nutrient Solution was used as growth medium for the algal culture and Bold's agar was used for the efficacy testing. A single coupon was placed with a pair of sterile forceps at the center of the agar plug (on top) with the painted surface facing upwards. The algal inoculum was prepared by diluting an exponentially growing culture of Chlorella sp. to 1×10^6 cfu/ml.
Each well that contains a tested coupon was inoculated with 1750 μl of algal suspension (1×10^6 cfu/ml) making sure that the whole surface (paint film as well as the agar surrounding it) was evenly covered. The plates were incubated at room temp (21° C.-25° C.) with cyclic exposure to 14 hours fluorescent light followed by 10 hours darkness, for a period of three weeks.
At the end of the incubation period the samples were scored for percent inhibition regarding color intensity compared to the blank sample
The SI is calculated based on F. C. Kull et.
SI=Qa/QA+Qb/QB • Qa=the concentration of Antimicrobial A in the blend • QA=the concentration of Antimicrobial A as the only biocide • Qb=the concentration of Antimicrobial B in the blend • QB=the concentration of Antimicrobial B as the only antimicrobial
SI value of <1 in the formula indicates a synergism of the blended biocides exists.
The minimal targeted inhibition was set at 75%, meaning a coupon with at least 75% algal growth inhibition was considered as a pass.

## O=c1[nH]c2c(c(=O)n1C1CCCCC1)CCC2 [Lenacil, 3-Cyclohexyl-6,7-dihydro-1H-cyclopentapyrimidine-2,4-(3H,5H)-dione]
504 h
  inhibition at 1000 ppm: 90%
Three weeks
  Total conc, ppm (concentration giving pass level ≥ 75% inhibition): 1,000 ppm

## c1ccc2[nH]c(-c3cscn3)nc2c1 [Thiabendazole, 4-(1H-1,3-benzodiazol-2-yl)-1,3-thiazole]
504 h, total conc 10000 ppm in paint, three weeks, color intensity vs blank
  inhibition at 10000 ppm: 75%
Three weeks
  Total conc, ppm (concentration giving pass level ≥ 75% inhibition): 10000 ppm

Reference: patent US20190116792A1 (Dow Global Technologies LLC, priority 2016, published 2019)
